The text below walks through data of patent publication US12508313B2, “Quinoline derivative-containing pharmaceutical composition” (Eisai R&D Management Co., Ltd., priority 2009, dated 2025).

A short description of the series: Storage stability of capsules, degradants determined by high-performance liquid chromatography. The format is physicochemical. The conditions noted are these: Initial (before storage); HPLC. On the procedure: The capsules in Examples 16 to 17 and Comparative Example 6 were stored for 1 week in an open system under an environment at a temperature of 60° C. and a relative humidity of 75%, followed by determining the production of the degradants with high-performance liquid chromatography. In the capsule formulation in Comparative Example 6, in which neither calcium carbonate nor magnesium carbonate was mixed, an amount of the degradants was increased. In contrast, in the capsules in Examples 16 to 17, in which calcium carbonate or magnesium carbonate was mixed, no increase in amount of the degradants was observed (Table 8).

Regarding `COc1cc2nccc(Oc3ccc(NC(=O)NC4CC4)c(Cl)c3)c2cc1C(N)=O.CS(=O)(=O)O` [Compound A, 4-(3-chloro-4-(cyclopropylaminocarbonyl)aminophenoxy)-7-methoxy-6-quinolinecarboxamide methanesulfonate], the “Quantitated compound A (%)” value amounted to 98.38%.
